These results are taken from patent US12059422B2 (MEI Pharma, Inc., priority 2011, dated 2024).

The target of one assay is T1, PI3Kγ (Mus musculus, UniProt Q9JHG7).
T1 construct: endogenous in cells; host or cells: RAW 264.7 (ATCC #TIB-71)
Description: ELISA assay for PI3Kγ: in-cell ELISA, phosphorylation of AKT (Ser473) in RAW 264.7 cells. The note with it: cellular, pAKT (Ser473), C5a stimulation, read-out: IC50 p110γ. The format is cell-based. How it is done: PI3K gamma (PI3Kγ) activity was determined by measuring the phosphorylation of AKT (Ser473) using an in-cell ELISA assay. RAW 264.7 (mouse macrophage) cells were obtained from ATCC (ATCC #TIB-71). Growth medium was DMEM (CellGro #CV-10-013-CV) supplemented with 10% fetal bovine serum, 100 IU/mL penicillin, 100 μg/mL streptomycin, and 1×MEM non-essential amino acids. Phosphate buffered saline (PBS) contained 2.7 M NaCl, 54 mM KCl, 86 mM […] (dibasic, anhydrous), and 28 mM […] (monobasic, anhydrous) at pH 7.2. Stimulation mixture (10×) was 500 ng/mL recombinant human complement component C5a (R&D systems #2037-C5-025) diluted in serum-free DMEM medium (CellGro #CV-10-013-CV). Compounds for testing were dissolved and serially diluted in 100% DMSO (total of 10 concentrations), then diluted in serum-free DMEM to 2× final assay concentration. Fixative solution (2×) was 8% formaldehyde (Amresco #M134) diluted in PBS. Permeabilization solution was PBS supplemented with 0.10% Triton X-100. Blocking buffer was obtained from LiCor (LiCor #927-40000). Wash buffer was PBS supplemented with 0.1% Tween-20. Primary antibody solution was rabbit anti-pAKT^S473 monoclonal antibody (Cell Signaling #4060) and mouse anti-total S6 (Santa Cruz #74459) diluted 1:500 and 1:2000, respectively, in the blocking buffer. Secondary antibody solution was IRDye 800CW-conjugated goat anti-rabbit IgG (LiCor #926-32211) and IRDye 680LT-conjugated goat anti-mouse IgG (LiCor #926-68020) diluted 1:1000 and 1:2000, respectively, in the blocking buffer.
(§1) RAW 264.7 cells were subcultured in growth medium and seeded into flat, clear bottom, 96-well plates (Corning #3904) at 70000 cells/well, then incubated overnight in a 37° C., 5% CO2 incubator. Growth medium in plates was replaced with 100 μL/well serum-free DMEM and incubated overnight in a 37° C., 5% CO2 incubator. Fresh serum-free DMEM (50 μL/well) was added to plates. Compound treatment was performed by adding 50 μL/well of 2× compound mixture to plates and incubating for 2 hrs at 37° C., 5% CO2, after which 11 μL/well of 10× stimulation mixture was added and plates were incubated for 3 min at 37° C., 5% CO2. Fixation was performed by adding 110 μL/well of 2× fixative solution to plates and incubating for 20 min at room temperature. Permeabilization was performed by replacing fixation solution with 150 μL/well permeabilization solution and incubating for 10 min at room temperature. Permeabilization was repeated (for a total of 2 times). Permeabilization solution was replaced with 100 μL/well blocking buffer and plates were incubated for 1 hr at room temperature, after which 100 μL/well of primary antibody solution was added and plates were incubated overnight at 4° C. Plates were washed with wash buffer, after which 100 μL/well of secondary antibody solution was added to the plates and incubated in the dark for 1 hr at room temperature. Plates were washed with wash buffer, followed by awash with PBS. After completely removing PBS, plates were scanned on the Licor Odyssey Imager. Images were quantified using Licor Odyssey application software. IC50 values were determined by curve fitting using a Collaborative Drug Discovery database (www.collaborativedrug.com).
For orientation: In an ELISA, binding on a coated surface is turned into a signal by an enzyme label.

In a further assay the target is T2, PI3Kβ (Homo sapiens, UniProt P42338).
T2 construct: endogenous in cells; host or cells: PC-3 (ATCC #CRL-1435)
T2 sequence (P42338 whole entry): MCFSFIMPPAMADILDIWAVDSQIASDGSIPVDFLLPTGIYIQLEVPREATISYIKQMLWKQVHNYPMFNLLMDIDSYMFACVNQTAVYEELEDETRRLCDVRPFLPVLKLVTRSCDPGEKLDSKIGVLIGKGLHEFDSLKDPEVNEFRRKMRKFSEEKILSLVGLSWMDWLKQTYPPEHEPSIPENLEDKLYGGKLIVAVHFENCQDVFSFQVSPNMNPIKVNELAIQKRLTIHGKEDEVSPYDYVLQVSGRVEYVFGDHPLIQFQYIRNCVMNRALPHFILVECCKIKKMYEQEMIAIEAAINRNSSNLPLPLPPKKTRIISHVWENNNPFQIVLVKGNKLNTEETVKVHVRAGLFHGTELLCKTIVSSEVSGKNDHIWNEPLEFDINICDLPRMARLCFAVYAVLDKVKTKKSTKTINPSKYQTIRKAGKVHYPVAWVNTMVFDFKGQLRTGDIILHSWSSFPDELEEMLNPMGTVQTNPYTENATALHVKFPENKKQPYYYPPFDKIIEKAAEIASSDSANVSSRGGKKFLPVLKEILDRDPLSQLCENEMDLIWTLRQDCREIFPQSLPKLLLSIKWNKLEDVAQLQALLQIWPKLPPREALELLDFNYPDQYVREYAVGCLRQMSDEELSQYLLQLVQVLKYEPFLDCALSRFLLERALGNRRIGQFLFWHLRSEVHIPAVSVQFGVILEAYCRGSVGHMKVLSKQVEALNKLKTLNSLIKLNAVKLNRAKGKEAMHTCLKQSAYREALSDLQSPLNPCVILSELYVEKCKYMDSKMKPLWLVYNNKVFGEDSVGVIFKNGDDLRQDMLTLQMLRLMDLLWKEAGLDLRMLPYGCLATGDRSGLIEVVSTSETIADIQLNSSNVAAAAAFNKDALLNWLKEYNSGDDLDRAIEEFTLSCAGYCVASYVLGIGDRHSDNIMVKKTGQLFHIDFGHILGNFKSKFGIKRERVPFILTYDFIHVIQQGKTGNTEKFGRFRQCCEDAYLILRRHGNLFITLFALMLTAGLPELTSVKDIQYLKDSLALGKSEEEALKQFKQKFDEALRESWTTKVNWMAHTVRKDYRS
T2 sequence (P27986 whole entry partner): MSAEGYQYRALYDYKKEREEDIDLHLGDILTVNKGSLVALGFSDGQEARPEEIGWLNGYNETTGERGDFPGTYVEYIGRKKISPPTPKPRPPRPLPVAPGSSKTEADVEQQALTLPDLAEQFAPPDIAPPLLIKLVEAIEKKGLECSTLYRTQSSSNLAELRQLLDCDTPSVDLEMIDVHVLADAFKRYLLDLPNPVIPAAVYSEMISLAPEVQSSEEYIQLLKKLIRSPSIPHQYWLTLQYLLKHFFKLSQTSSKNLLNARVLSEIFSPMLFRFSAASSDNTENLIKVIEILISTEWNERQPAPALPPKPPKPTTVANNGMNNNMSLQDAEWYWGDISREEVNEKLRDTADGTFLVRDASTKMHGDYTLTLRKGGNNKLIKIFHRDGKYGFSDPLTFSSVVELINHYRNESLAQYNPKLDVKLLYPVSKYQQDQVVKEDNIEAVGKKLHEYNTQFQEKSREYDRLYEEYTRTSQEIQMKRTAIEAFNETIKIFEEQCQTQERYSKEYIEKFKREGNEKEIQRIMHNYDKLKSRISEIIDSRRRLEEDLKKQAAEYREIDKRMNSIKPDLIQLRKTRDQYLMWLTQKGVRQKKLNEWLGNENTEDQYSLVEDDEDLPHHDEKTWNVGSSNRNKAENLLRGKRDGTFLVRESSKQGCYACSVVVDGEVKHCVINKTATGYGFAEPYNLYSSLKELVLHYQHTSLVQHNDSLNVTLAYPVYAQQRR
Kind of assay: ELISA assay for PI3Kβ: in-cell ELISA, phosphorylation of AKT (Ser473) in PC-3 cells. Format: cell-based. The note with it: for IC50: cellular, pAKT (Ser473), PC-3 cells, LPA stimulation, read-out: IC50 p110β; for α/β ratio: ratio of cellular IC50 values, Table 2. On the procedure: Cellular PI3Kβ activity was determined by measuring the phosphorylation of AKT (Ser473) using an in-cell ELISA assay. PC-3 (prostate carcinoma) cells were obtained from ATCC (ATCC #CRL-1435). Growth medium was DMEM (CellGro #CV-10-013-CV) supplemented with 10% fetal bovine serum, 100 IU/mL penicillin, 100 μg/mL streptomycin, and 1×MEM non-essential amino acids. Phosphate buffered saline (PBS) contained 2.7 M NaCl, 54 mM KCl, 86 mM […] (dibasic, anhydrous), 28 mM […] (monobasic, anhydrous), pH 7.2, 10× stimulation mixture contained 50 μM LPA (Cayman #62215) diluted in serum-free DMEM medium (CellGro #CV-10-013-CV). Compounds for testing were dissolved and serially diluted in 100% DMSO (total of 10 concentrations), then diluted in serum-free DMEM to 2× final assay concentration. 2× fixative solution contained 8% formaldehyde (Amresco #M134) diluted in PBS. Permeabilization solution contained PBS supplemented with 0.1% Triton X-100. Blocking buffer was obtained from LiCor (LiCor #927-40000). Wash buffer contained PBS supplemented with 0.1% Tween-20. Primary antibody solution was rabbit anti-pAKT^S473 monoclonal antibody (Cell Signaling #4060) and mouse anti-total S6 (Santa Cruz #74459) diluted 1:500 and 1:2000, respectively, in blocking buffer. Secondary antibody solution was IRDye 800CW-conjugated goat anti-rabbit IgG (LiCor #926-32211) and IRDye 680LT-conjugated goat anti-mouse IgG (LiCor #926-68020) diluted 1:2000 and 1:1000, respectively, in blocking buffer.
as §1, with “PC-3 cells” for “RAW 264.7 cells”, “at 16000” for “at 70000”, “incubator. 50 μL/well of fresh” for “incubator. Fresh”, “DMEM” for “DMEM (50 μL/well)”, “for 10” for “for 3”, “Images” for “Images were”

As a reminder, the IC50 is the concentration that gives 50% inhibition.

The structures appear in SMILES notation.

T1 sequence (Q9JHG7 whole entry): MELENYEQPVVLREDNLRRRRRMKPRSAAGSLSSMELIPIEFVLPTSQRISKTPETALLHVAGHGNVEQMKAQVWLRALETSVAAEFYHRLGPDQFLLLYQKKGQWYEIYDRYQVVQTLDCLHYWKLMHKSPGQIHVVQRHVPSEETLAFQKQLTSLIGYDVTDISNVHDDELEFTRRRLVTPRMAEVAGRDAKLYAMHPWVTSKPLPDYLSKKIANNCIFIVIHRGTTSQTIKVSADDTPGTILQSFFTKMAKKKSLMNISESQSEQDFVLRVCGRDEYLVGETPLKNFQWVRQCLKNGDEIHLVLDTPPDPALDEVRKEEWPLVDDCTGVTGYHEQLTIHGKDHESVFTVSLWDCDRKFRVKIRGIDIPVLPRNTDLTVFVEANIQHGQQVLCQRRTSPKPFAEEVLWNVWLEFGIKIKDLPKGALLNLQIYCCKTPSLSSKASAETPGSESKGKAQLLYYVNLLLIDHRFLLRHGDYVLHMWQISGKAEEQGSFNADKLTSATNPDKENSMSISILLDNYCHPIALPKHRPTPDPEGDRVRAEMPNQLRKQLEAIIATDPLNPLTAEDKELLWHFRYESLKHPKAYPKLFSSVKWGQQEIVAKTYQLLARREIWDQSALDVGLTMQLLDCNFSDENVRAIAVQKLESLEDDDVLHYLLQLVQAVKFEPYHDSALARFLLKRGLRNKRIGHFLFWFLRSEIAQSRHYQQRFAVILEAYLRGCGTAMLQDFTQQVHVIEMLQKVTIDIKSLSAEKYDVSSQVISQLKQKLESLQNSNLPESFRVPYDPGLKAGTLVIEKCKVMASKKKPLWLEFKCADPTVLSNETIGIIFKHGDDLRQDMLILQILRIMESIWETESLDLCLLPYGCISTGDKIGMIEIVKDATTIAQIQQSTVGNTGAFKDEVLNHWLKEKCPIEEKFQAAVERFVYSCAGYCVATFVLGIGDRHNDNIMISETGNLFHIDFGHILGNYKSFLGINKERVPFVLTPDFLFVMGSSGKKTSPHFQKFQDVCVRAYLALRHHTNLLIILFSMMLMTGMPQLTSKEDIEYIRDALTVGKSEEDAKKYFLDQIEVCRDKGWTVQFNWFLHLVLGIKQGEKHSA

Consider `Cc1cc(-c2ccccc2CC(C)(C)Nc2nc(N3CCOCC3)nc(-n3c(C(F)F)nc4ccccc43)n2)ccn1` [Compound A43, 4-(2-(difluoromethyl)-1H-benzo[d]imidazol-1-yl)-N-(2-methyl-1-(2-(2-methylpyridin-4-yl)phenyl)propan-2-yl)-6-morpholino-1,3,5-triazin-2-amine], for which, on PI3Kγ, the IC50 was in the range of 200 to 500 nM. Further, at PI3Kβ, the IC50 is at most 100 nM and the α/β ratio entry is given as “C’”.
Taken in the same sequence, the figures for `CC(C)(Cc1ccccc1-c1cn[nH]c1)Nc1nc(N2CCOCC2)nc(-n2c(C(F)F)nc3ccccc32)n1` [Compound A44, 4-(2-(difluoromethyl)-1H-benzo[d]imidazol-1-yl)-N-(1-(2-(1H-pyrazol-4-yl)phenyl)-2-methylpropan-2-yl)-6-morpholino-1,3,5-triazin-2-amine] were at most 100 nM, at most 100 nM and “A’”.
For `Cn1cc(-c2ccccc2CC(C)(C)Nc2nc(N3CCOCC3)nc(-n3c(C(F)F)nc4ccccc43)n2)cn1` [Compound A45, 4-(2-(difluoromethyl)-1H-benzo[d]imidazol-1-yl)-N-(2-methyl-1-(2-(1-methyl-1H-pyrazol-4-yl)phenyl)propan-2-yl)-6-morpholino-1,3,5-triazin-2-amine] the same measures were at most 100 nM, at most 100 nM and “A’”.
Taken in the same sequence, the figures for `Cn1nccc1-c1ccccc1CC(C)(C)Nc1nc(N2CCOCC2)nc(-n2c(C(F)F)nc3ccccc32)n1` [Compound A46, 4-(2-(difluoromethyl)-1H-benzo[d]imidazol-1-yl)-N-(2-methyl-1-(2-(1-methyl-1H-pyrazol-5-yl)phenyl)propan-2-yl)-6-morpholino-1,3,5-triazin-2-amine] were 200 to 500 nM, at most 100 nM and “A’”.
`Cc1cccc(CC(C)(C)Nc2nc(N3CCOCC3)nc(-n3c(C(F)F)nc4ccccc43)n2)c1` [Compound A49, 4-(2-(difluoromethyl)-1H-benzo[d]imidazol-1-yl)-N-(2-methyl-1-m-tolylpropan-2-yl)-6-morpholino-1,3,5-triazin-2-amine]: the 50% inhibitory concentration (IC50) on PI3Kγ lay in the range of 200 to 500 nM. At PI3Kβ, the 50% inhibitory concentration (IC50) is at most 100 nM and the α/β ratio result is recorded as “B’”.
Taken in the same sequence, the figures for `COc1cc(CC(C)(C)Nc2nc(N3CCOCC3)nc(-n3c(C(F)F)nc4ccccc43)n2)ccc1F` [Compound A50, 4-(2-(difluoromethyl)-1H-benzo[d]imidazol-1-yl)-N-(1-(4-fluoro-3-methoxyphenyl)-2-methylpropan-2-yl)-6-morpholino-1,3,5-triazin-2-amine] were 200 to 500 nM, at most 100 nM and “B’”.
For `CC(C)(Cc1ccc(F)cc1F)Nc1nc(N2CCOCC2)nc(-n2c(C(F)F)nc3ccccc32)n1` [Compound A51, 4-(2-(difluoromethyl)-1H-benzo[d]imidazol-1-yl)-N-(1-(2,4-difluorophenyl)-2-methylpropan-2-yl)-6-morpholino-1,3,5-triazin-2-amine] the same measures were 100 to 200 nM, 100 to 200 nM and “C’”.
For `CC(C)(Cc1c(F)cccc1F)Nc1nc(N2CCOCC2)nc(-n2c(C(F)F)nc3ccccc32)n1` [Compound A52, 4-(2-(difluoromethyl)-1H-benzo[d]imidazol-1-yl)-N-(1-(2,6-difluorophenyl)-2-methylpropan-2-yl)-6-morpholino-1,3,5-triazin-2-amine] the same measures were 100 to 200 nM, at most 100 nM and “C’”.
Consider `CC(C)(Cc1ccccc1-c1ccccc1F)Nc1nc(N2CCOCC2)nc(-n2c(C(F)F)nc3ccccc32)n1` [Compound A59, 4-(2-(difluoromethyl)-1H-benzo[d]imidazol-1-yl)-N-(1-(2′-fluorobiphenyl-2-yl)-2-methylpropan-2-yl)-6-morpholino-1,3,5-triazin-2-amine], for which the 50% inhibitory concentration (IC50) at PI3Kγ was over 500 nM. On PI3Kβ, the half-maximal inhibitory concentration (IC50) is 100 to 200 nM and the α/β ratio result is given as “A’”.
For the molecule `Cc1ccccc1-c1ccccc1CC(C)(C)Nc1nc(N2CCOCC2)nc(-n2c(C(F)F)nc3ccccc32)n1` [Compound A60, 4-(2-(difluoromethyl)-1H-benzo[d]imidazol-1-yl)-N-(2-methyl-1-(2′-methylbiphenyl-2-yl)propan-2-yl)-6-morpholino-1,3,5-triazin-2-amine], the IC50 was over 500 nM on PI3Kγ and 200 to 500 nM on PI3Kβ. For the same molecule, on PI3Kβ, the α/β ratio result was “A’”.
Taken in the same sequence, the figures for `CC(C)(Cc1ccccc1-c1ccccc1Cl)Nc1nc(N2CCOCC2)nc(-n2c(C(F)F)nc3ccccc32)n1` [Compound A61, 4-(2-(difluoromethyl)-1H-benzo[d]imidazol-1-yl)-N-(1-(6′-chlorobiphenyl-2-yl)-2-methylpropan-2-yl)-6-morpholino-1,3,5-triazin-2-amine] were over 500 nM, 100 to 200 nM and “A’”.
For `CC(C)(Cc1ccccc1-c1cccnc1F)Nc1nc(N2CCOCC2)nc(-n2c(C(F)F)nc3ccccc32)n1` [Compound A62] the same measures were 200 to 500 nM, at most 100 nM and “A’”.
